Measured values as given in paper PMC6364417, “Kinase inhibitor library screening identifies synergistic drug combinations effective in sensitive and resistant melanoma cells” (Journal of Experimental & Clinical Cancer Research : CR, 2019).

What was measured:
Assay in all cases: Kinase inhibitor library screening, PrestoBlue cell viability, 1 or 10 μM, 72 h
[1] = test system: IGR37-GP cells (Dabrafenib-resistant)
501Mel cells (parental) = details: 72 h
Summary of the method: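 Kinase inhibitors added at two fixed concentrations; 72 h exposure; PrestoBlue readout; % viability vs untreated; n ≥ 2 per line.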

[2] = test system: IGR37-XP cells (Vemurafenib-resistant)
A375 cells (parental) = test system: A375 cells (parental)
[3] = test system: 501Mel-GP cells (Dabrafenib-resistant); details: 72 h
[4] = test system: A375-GP cells (Dabrafenib-resistant)
IGR37 cells (parental) = test system: IGR37 cells (parental)
[5] = test system: 501Mel-XP cells (Vemurafenib-resistant); details: 72 h
[6] = test system: A375-XP cells (Vemurafenib-resistant)

S=C(NCc1ccc2c(c1)OCO2)N1CCN(c2ncnc3c2oc2ccccc23)CC1 [Amuvatinib (MP-470)]
cell viability (kinase inhibitor library screening) ([1]; IGR37 GP, 1μΜ, 72 h): 94.7%
cell viability (kinase inhibitor library screening) ([1]; IGR37 GP, 10μΜ, 72 h): 95.7%
cell viability (kinase inhibitor library screening) (501Mel cells (parental); 501Mel Parental, 1μΜ): 98.9%
cell viability (kinase inhibitor library screening) (501Mel cells (parental); 501Mel Parental, 10μΜ): 98.9%
cell viability (kinase inhibitor library screening) ([2]; IGR37 XP, 10μΜ, 72 h): 77.9%
cell viability (kinase inhibitor library screening) (A375 cells (parental); A375 Parental, 10μΜ, 72 h): 84.8%
cell viability (kinase inhibitor library screening) (A375 cells (parental); A375 Parental, 1μΜ, 72 h): 97.4%
cell viability (kinase inhibitor library screening) ([3]; 501Mel GP, 1μΜ): 105.2%
cell viability (kinase inhibitor library screening) ([3]; 501Mel GP, 10μΜ): 86.9%
cell viability (kinase inhibitor library screening) ([4]; A375 GP, 1μΜ, 72 h): 95.9%
cell viability (kinase inhibitor library screening) ([4]; A375 GP, 10μΜ, 72 h): 84.4%
cell viability (kinase inhibitor library screening) (IGR37 cells (parental); IGR37 Parental, 1μΜ, 72 h): 95.9%
cell viability (kinase inhibitor library screening) (IGR37 cells (parental); IGR37 Parental, 10μΜ, 72 h): 97.0%
cell viability (kinase inhibitor library screening) ([5]; 501Mel XP, 1μΜ): 100.3%
cell viability (kinase inhibitor library screening) ([5]; 501Mel XP, 10μΜ): 88.3%
cell viability (kinase inhibitor library screening) ([6]; A375 XP, 1μΜ, 72 h): 104.7%
cell viability (kinase inhibitor library screening) ([6]; A375 XP, 10μΜ, 72 h): 94.9%

CCCCCCCCCCCCc1ccc(S(=O)(=O)Nc2nncs2)cc1 [PHT-427]
cell viability (kinase inhibitor library screening) ([1]; IGR37 GP, 1μΜ, 72 h): 95.0%
cell viability (kinase inhibitor library screening) ([1]; IGR37 GP, 10μΜ, 72 h): 98.8%
cell viability (kinase inhibitor library screening) (501Mel cells (parental); 501Mel Parental, 1μΜ): 99.9%
cell viability (kinase inhibitor library screening) (501Mel cells (parental); 501Mel Parental, 10μΜ): 96.2%
cell viability (kinase inhibitor library screening) ([2]; IGR37 XP, 10μΜ, 72 h): 79.8%
cell viability (kinase inhibitor library screening) (A375 cells (parental); A375 Parental, 10μΜ, 72 h): 98.4%
cell viability (kinase inhibitor library screening) ([3]; 501Mel GP, 1μΜ): 115.7%
cell viability (kinase inhibitor library screening) ([3]; 501Mel GP, 10μΜ): 95.0%
cell viability (kinase inhibitor library screening) ([4]; A375 GP, 1μΜ, 72 h): 107.5%
cell viability (kinase inhibitor library screening) ([4]; A375 GP, 10μΜ, 72 h): 93.5%
cell viability (kinase inhibitor library screening) (IGR37 cells (parental); IGR37 Parental, 10μΜ, 72 h): 110.3%
cell viability (kinase inhibitor library screening) ([5]; 501Mel XP, 10μΜ): 85.4%
cell viability (kinase inhibitor library screening) ([6]; A375 XP, 1μΜ, 72 h): 106.9%
cell viability (kinase inhibitor library screening) ([6]; A375 XP, 10μΜ, 72 h): 100.2%

CNC(=O)CN1CCC(Oc2cc3c(Nc4cccc(Cl)c4F)ncnc3cc2OC)CC1 [AZD8931]
viability at 1 µM ([1]; Homo sapiens, IGR-37, 72 h, read-out: cell viability, IGR37 GP, 1μΜ): 90.4%
viability at 10 µM ([1]; Homo sapiens, IGR-37, 72 h, read-out: cell viability, IGR37 GP, 10μΜ): 78%
viability at 1 µM (501Mel cells (parental); Homo sapiens, read-out: cell viability, 501Mel Parental, 1μΜ): 90.5%
viability at 10 µM (501Mel cells (parental); Homo sapiens, read-out: cell viability, 501Mel Parental, 10μΜ): 86%
viability at 1 µM ([2]; Homo sapiens, IGR-37, 72 h, read-out: cell viability, IGR37 XP, 1μΜ): 71.9%
viability at 10 µM ([2]; Homo sapiens, IGR-37, 72 h, read-out: cell viability, IGR37 XP, 10μΜ): 50%
viability at 1 µM (A375 cells (parental); Homo sapiens, A-375, 72 h, read-out: cell viability, A375 Parental, 1μΜ): 96.7%
viability at 10 µM (A375 cells (parental); Homo sapiens, A-375, 72 h, read-out: cell viability, A375 Parental, 10μΜ): 83.8%
viability at 1 µM ([3]; Homo sapiens, read-out: cell viability, 501Mel GP, 1μΜ): 100%
viability at 10 µM ([3]; Homo sapiens, read-out: cell viability, 501Mel GP, 10μΜ): 79.7%
viability at 1 µM ([4]; Homo sapiens, A-375, 72 h, read-out: cell viability, A375 GP, 1μΜ): 103%
viability at 10 µM ([4]; Homo sapiens, A-375, 72 h, read-out: cell viability, A375 GP, 10μΜ): 74.8%
viability at 1 µM (IGR37 cells (parental); Homo sapiens, IGR-37, 72 h, read-out: cell viability, IGR37 Parental, 1μΜ): 96.3%
viability at 10 µM (IGR37 cells (parental); Homo sapiens, IGR-37, 72 h, read-out: cell viability, IGR37 Parental, 10μΜ): 98.9%
viability at 1 µM ([5]; Homo sapiens, read-out: cell viability, 501Mel XP, 1μΜ): 94.5%
viability at 10 µM ([5]; Homo sapiens, read-out: cell viability, 501Mel XP, 10μΜ): 68.3%
viability at 1 µM ([6]; Homo sapiens, A-375, 72 h, read-out: cell viability, A375 XP, 1μΜ): 96.5%
viability at 10 µM ([6]; Homo sapiens, A-375, 72 h, read-out: cell viability, A375 XP, 10μΜ): 86%

CCOc1cc2ncc(C#N)c(Nc3ccc(F)c(Cl)c3)c2cc1NC(=O)/C=C/CN(C)C [Pelitinib (EKB-569)]
cell viability, IGR37 GP, 10μΜ ([1]; IGR37 GP, 10μΜ, 72 h): 92.3%
cell viability, IGR37 GP, 1μΜ ([1]; IGR37 GP, 1μΜ, 72 h, in %): 97.5
cell viability, 501Mel Parental, 1μΜ (501Mel cells (parental); 501Mel Parental, 1μΜ, in %): 102.9
cell viability, 501Mel Parental, 10μΜ (501Mel cells (parental); 501Mel Parental, 10μΜ, in %): 89.9
cell viability, IGR37 XP, 10μΜ ([2]; IGR37 XP, 10μΜ, 72 h): 77.5%
cell viability, IGR37 XP, 1μΜ ([2]; IGR37 XP, 1μΜ, 72 h, in %): 97.8
cell viability, A375 Parental, 1μΜ (A375 cells (parental); A375 Parental, 1μΜ, 72 h, in %): 103.3
cell viability, A375 Parental, 10μΜ (A375 cells (parental); A375 Parental, 10μΜ, 72 h, in %): 79.2
cell viability, 501Mel GP, 1μΜ ([3]; 501Mel GP, 1μΜ, in %): 102.6
cell viability, 501Mel GP, 10μΜ ([3]; 501Mel GP, 10μΜ, in %): 92.4
cell viability, A375 GP, 1μΜ ([4]; A375 GP, 1μΜ, 72 h, in %): 98.8
cell viability, A375 GP, 10μΜ ([4]; A375 GP, 10μΜ, 72 h, in %): 88.7
cell viability, IGR37 Parental, 1μΜ (IGR37 cells (parental); IGR37 Parental, 1μΜ, 72 h, in %): 99.8
cell viability, IGR37 Parental, 10μΜ (IGR37 cells (parental); IGR37 Parental, 10μΜ, 72 h, in %): 97.0
cell viability, 501Mel XP, 10μΜ ([5]; 501Mel XP, 10μΜ, in %): 91.9
cell viability, A375 XP, 1μΜ ([6]; A375 XP, 1μΜ, 72 h, in %): 104.6
cell viability, A375 XP, 10μΜ ([6]; A375 XP, 10μΜ, 72 h, in %): 96.9
